From the NIST ThermoML archive (doi:10.1007/s10765-013-1526-8)

Columns and labels:
[1] = xn = mol fraction of the nth substance listed; settings: 101 kPa, Liquid; for speed of sound: Sing-around technique in a fixed-path interferometer
[2] = refractive index (Na D-line) (dimensionless); xn = mol fraction of the nth substance listed; settings: 101 kPa, Liquid

CCCCC(CC)CO (stereo not given) [2-ethyl-1-hexanol] + Clc1ccccc1
Settings | mass density, [1] [kg/m3] | refractive index, [2] | speed of sound, [1] [m/s] | viscosity, [1] [mPa·s]
298.15 K, x2 = 0 | 829.07 | 1.4287 | 1319 | 8.418
298.15 K, x2 = 0.0779 | 838.66 | 1.435 | 1313 | 6.736
298.15 K, x2 = 0.1381 | 847.37 | 1.44 | 1308 | 5.641
298.15 K, x2 = 0.1974 | 857.02 | 1.4453 | 1304 | 4.684
298.15 K, x2 = 0.2716 | 870.89 | 1.4523 | 1298 | 3.718
298.15 K, x2 = 0.3399 | 885.34 | 1.4591 | 1292 | 2.996
298.15 K, x2 = 0.4119 | 902.38 | 1.4666 | 1287 | 2.38
298.15 K, x2 = 0.4766 | 919.17 | 1.4734 | 1282 | 1.969
298.15 K, x2 = 0.5461 | 938.46 | 1.4807 | 1277 | 1.628
298.15 K, x2 = 0.6124 | 958.72 | 1.4879 | 1272 | 1.381
298.15 K, x2 = 0.6892 | 983.65 | 1.4961 | 1268 | 1.197
298.15 K, x2 = 0.758 | 1007.82 | 1.5034 | 1265 | 1.06
298.15 K, x2 = 0.8189 | 1029.88 | 1.5095 | 1264 | 0.969
298.15 K, x2 = 0.8888 | 1056.63 | 1.5161 | 1263 | 0.893
298.15 K, x2 = 0.9533 | 1081.91 | 1.521 | 1265 | 0.821
303.15 K, x2 = 0 | 825.39 | 1.4266 | 1301 | 7.144
303.15 K, x2 = 0.0779 | 834.41 | 1.4332 | 1295 | 5.817
303.15 K, x2 = 0.1381 | 842.5 | 1.4382 | 1291 | 4.906
303.15 K, x2 = 0.1974 | 852.03 | 1.4437 | 1286 | 4.121
303.15 K, x2 = 0.2716 | 865.78 | 1.4509 | 1280 | 3.268
303.15 K, x2 = 0.3399 | 880.07 | 1.4577 | 1275 | 2.671
303.15 K, x2 = 0.4119 | 897.12 | 1.4651 | 1269 | 2.147
303.15 K, x2 = 0.4766 | 914.02 | 1.472 | 1264 | 1.785
303.15 K, x2 = 0.5461 | 933.51 | 1.4793 | 1259 | 1.455
303.15 K, x2 = 0.6124 | 953.51 | 1.4863 | 1254 | 1.253
303.15 K, x2 = 0.6892 | 978.28 | 1.4943 | 1250 | 1.057
303.15 K, x2 = 0.758 | 1002.29 | 1.5015 | 1247 | 0.968
303.15 K, x2 = 0.8189 | 1024.42 | 1.5076 | 1246 | 0.881
303.15 K, x2 = 0.8888 | 1050.99 | 1.514 | 1245 | 0.81
303.15 K, x2 = 0.9533 | 1076.27 | 1.5186 | 1247 | 0.764
308.15 K, x2 = 0 | 821.68 | 1.4245 | 1283 | 6.09
308.15 K, x2 = 0.0779 | 829.62 | 1.4308 | 1277 | 4.854
308.15 K, x2 = 0.1381 | 837.63 | 1.4362 | 1273 | 4.032
308.15 K, x2 = 0.1974 | 846.84 | 1.4416 | 1268 | 3.363
308.15 K, x2 = 0.2716 | 860.76 | 1.4491 | 1263 | 2.689
308.15 K, x2 = 0.3399 | 875.1 | 1.4561 | 1257 | 2.171
308.15 K, x2 = 0.4119 | 892.15 | 1.4637 | 1252 | 1.749
308.15 K, x2 = 0.4766 | 908.93 | 1.4706 | 1247 | 1.45
308.15 K, x2 = 0.5461 | 928.26 | 1.4778 | 1242 | 1.221
308.15 K, x2 = 0.6124 | 948.46 | 1.4849 | 1237 | 1.068
308.15 K, x2 = 0.6892 | 973.49 | 1.4929 | 1233 | 0.96
308.15 K, x2 = 0.758 | 996.87 | 1.4998 | 1230 | 0.879
308.15 K, x2 = 0.8189 | 1018.95 | 1.5056 | 1228 | 0.824
308.15 K, x2 = 0.8888 | 1045.23 | 1.5116 | 1228 | 0.774
308.15 K, x2 = 0.9533 | 1070.96 | 1.5161 | 1229 | 0.719

CCCCC(CC)CO (stereo not given) [2-ethyl-1-hexanol] + c1ccccc1
Settings | mass density, [1] [kg/m3] | refractive index, [2] | speed of sound, [1] [m/s] | viscosity, [1] [mPa·s]
298.15 K, x2 = 0 | 829.07 | 1.4287 | 1319 | 8.418
298.15 K, x2 = 0.0606 | 829.89 | 1.4332 | 1313 | 7.185
298.15 K, x2 = 0.1203 | 830.77 | 1.4376 | 1308 | 6.102
298.15 K, x2 = 0.1798 | 831.79 | 1.4418 | 1304 | 5.153
298.15 K, x2 = 0.2384 | 832.95 | 1.4463 | 1299 | 4.364
298.15 K, x2 = 0.3132 | 834.73 | 1.4519 | 1293 | 3.469
298.15 K, x2 = 0.3915 | 836.9 | 1.4577 | 1288 | 2.697
298.15 K, x2 = 0.4515 | 838.87 | 1.4624 | 1283 | 2.222
298.15 K, x2 = 0.526 | 841.73 | 1.468 | 1278 | 1.749
298.15 K, x2 = 0.5849 | 844.27 | 1.4726 | 1275 | 1.474
298.15 K, x2 = 0.6557 | 847.83 | 1.4778 | 1273 | 1.202
298.15 K, x2 = 0.726 | 851.85 | 1.4829 | 1272 | 1.008
298.15 K, x2 = 0.7937 | 856.26 | 1.4877 | 1273 | 0.866
298.15 K, x2 = 0.8592 | 861.07 | 1.492 | 1276 | 0.764
298.15 K, x2 = 0.9299 | 867.04 | 1.4953 | 1284 | 0.68
303.15 K, x2 = 0 | 825.39 | 1.4266 | 1301 | 7.144
303.15 K, x2 = 0.0606 | 826.11 | 1.4312 | 1297 | 5.969
303.15 K, x2 = 0.1203 | 826.92 | 1.4355 | 1292 | 4.984
303.15 K, x2 = 0.1798 | 827.89 | 1.4397 | 1287 | 4.114
303.15 K, x2 = 0.2384 | 828.98 | 1.4442 | 1282 | 3.409
303.15 K, x2 = 0.3132 | 830.66 | 1.4499 | 1275 | 2.624
303.15 K, x2 = 0.3915 | 832.74 | 1.4557 | 1269 | 2.002
303.15 K, x2 = 0.4515 | 834.63 | 1.4604 | 1264 | 1.621
303.15 K, x2 = 0.526 | 837.35 | 1.4661 | 1258 | 1.305
303.15 K, x2 = 0.5849 | 839.78 | 1.4708 | 1255 | 1.127
303.15 K, x2 = 0.6557 | 843.22 | 1.4761 | 1252 | 0.953
303.15 K, x2 = 0.726 | 847.09 | 1.4811 | 1252 | 0.852
303.15 K, x2 = 0.7937 | 851.36 | 1.4858 | 1253 | 0.758
303.15 K, x2 = 0.8592 | 856.01 | 1.4899 | 1256 | 0.701
303.15 K, x2 = 0.9299 | 861.77 | 1.4934 | 1264 | 0.654
308.15 K, x2 = 0 | 821.68 | 1.4245 | 1283 | 6.09
308.15 K, x2 = 0.0606 | 822.28 | 1.4292 | 1278 | 5.084
308.15 K, x2 = 0.1203 | 823.05 | 1.4335 | 1273 | 4.22
308.15 K, x2 = 0.1798 | 823.96 | 1.4378 | 1269 | 3.49
308.15 K, x2 = 0.2384 | 825.01 | 1.4423 | 1265 | 2.903
308.15 K, x2 = 0.3132 | 826.61 | 1.448 | 1260 | 2.272
308.15 K, x2 = 0.3915 | 828.57 | 1.4539 | 1255 | 1.741
308.15 K, x2 = 0.4515 | 830.4 | 1.4585 | 1252 | 1.451
308.15 K, x2 = 0.526 | 832.98 | 1.4642 | 1248 | 1.174
308.15 K, x2 = 0.5849 | 835.32 | 1.4689 | 1245 | 1.02
308.15 K, x2 = 0.6557 | 838.62 | 1.4743 | 1242 | 0.881
308.15 K, x2 = 0.726 | 842.36 | 1.4793 | 1240 | 0.785
308.15 K, x2 = 0.7937 | 846.49 | 1.4839 | 1239 | 0.713
308.15 K, x2 = 0.8592 | 850.99 | 1.4879 | 1240 | 0.659
308.15 K, x2 = 0.9299 | 856.56 | 1.4913 | 1243 | 0.605
